{
  "source": "patent US11033546B2",
  "about": "“Solubilized compositions for controlled proliferation of stem cells / generating inner ear hair cells using a GSK3 inhibitor: I” (Frequency Therapeutics, Inc., priority 2016, dated 2021)",
  "key": {"[1]": {"experiment": "Solubility of CHIR99021 diHCl in PBS with or without 17 wt % poloxamer 407, judged by eye and transmitted light microscopy", "type": "physicochemical", "conditions": "17 wt % poloxamer 407 in 1×PBS versus 1×PBS alone; 25 mg/ml (supersaturated); pH approximately 7.5; stirred overnight at room temperature", "experimental": "CHIR99021 diHCl was combined with either 1×PBS or 17 wt % poloxamer 407 in 1×PBS at a concentration of 25 mg/ml, which was supersaturated for both solutions. After stirring the mixtures overnight at room temperature, the pH of the PBS buffers was adjusted to a pH of approximately 7.5."}, "[2]": {"experiment": "Solubility of CHIR99021 diHCl in Poloxamer P-407/water solutions under refrigeration", "type": "physicochemical", "conditions": "for solubility at 2 days: aqueous with cosolvent or surfactant or cyclodextrin, thermodynamic from solid, no DMSO or other additives, read-out: CHIR99021 diHCl Conc (solubility)", "experimental": "CHIR99021 diHCl was combined with Poloxamer P-407 and water. Samples were prepared ice-cold and allowed to incubate in the refrigerator for 2 days with occasional vortexing.\nThe solubility results shown below in Table 1 for refrigeration conditions. The only components in the poloxamer solution in the samples were P-407 and water (no DMSO or any other additives). The 20% sample was a gel at room temperature and the 15% sample was syrup, while the 10% and 5% samples were more fluid."}},
  "note": "Like-named read-outs stand apart in the source and are kept apart here.",
  "data": [
    {"compound": "Cc1c[nH]c(-c2cnc(NCCNc3ccc(C#N)cn3)nc2-c2ccc(Cl)cc2Cl)n1", "note": "[CHIR99021 diHCl, 6-[[2-[[4-(2,4-Dichlorophenyl)-5-(5-methyl-1H-imidazol-2-yl)-2-pyrimidinyl]amino]ethyl]amino]-3-pyridinecarbonitrile]", "values": [
      {"measurement": "solubility as judged by eye and transmitted light microscopy", "setting": "[1]", "result": "appeared more soluble"},
      {"measurement": "solubility trend in P-407 solutions", "setting": "[2]; 5% to 20% P-407 in water", "result": "improved solubility with increasing % poloxamer concentration"},
      {"measurement": "solubility at 2 days", "setting": "[2]; 10% Poloxamer P-407 in water, 10% P-407 in water", "result": 2.6, "unit": "µg/mL"},
      {"measurement": "solubility at 2 days", "setting": "[2]; 15% Poloxamer P-407 in water, 15% P-407 in water", "result": 7.9, "unit": "µg/mL"},
      {"measurement": "solubility at 2 days", "setting": "[2]; 20% Poloxamer P-407 in water, 20% P-407 in water", "result": 13.5, "unit": "µg/mL"}
    ]}
  ]
}
